Values quoted from earlier work as cited in patent US20100087769A1, “BIOCIDIC MEDICAL DEVICES, IMPLANTS AND WOUND DRESSINGS” (OPLON B.V., priority 2007, published 2010).
Entries after “also recorded” stand apart in the source; their conditions may differ. Read-outs that look alike come from different tables or passages of the source.

Assays:
[1] = test system: aerobic gram-negative bacilli, P. aeruginosa; conditions: spectrum as listed in the cell
[2] = not given; remark: listed apart in the source
[3] = test system: Aspergillus or Fusarium spp.; conditions: powder, 6 million units/g; four burn patients
[4] = test system: other Candida spp. and fungi
[5] = topical
MRSA = conditions: topical; 1% silver sulfadiazine, 2% mupirocin, 2% fusidic acid

For `NCc1ccc(S(N)(=O)=O)cc1` [Mafenide acetate], the Antibacterial activity [1] is listed as “Broad spectrum against”, the Major toxicity (in vivo) is listed as “Metabolic” and the reduction in mortality ([2]; burns of 40 to 79% TBSA) is listed as “greater than 10%”. For the same compound, the effect on mortality ([2]; patients with smaller or much larger burn injuries) was “only a minimal effect”.

For `C[C@@H]1[C@H](O)[C@@H](C)/C=C/C=C/CC/C=C/C=C/C=C/C=C/C(O[C@H]2O[C@H](C)[C@@H](O)[C@H](N)[C@@H]2O)CC2O[C@](O)(CC(O)C(O)CCC(O)CC(O)CC(O)CC(=O)O[C@H]1C)CC(O)C2C(=O)O` (stereo partly drawn) [Nystatin], the concentration that inhibits (Candida albicans) is listed as 3 µg/mL, the “treatment of angioinvasive fungal infections” value [3] is listed as “effective” and the “concentration needed to inhibit” value [4] is listed as 6.25 µg/mL.

In the case of `O=[N+]([O-])[O-].[Ag+]` [Silver nitrate], the Antibacterial activity [1] is listed as “Bacteriostatic against; also recorded: limited antifungal”, the Major toxicity (topical) is listed as “Electrolyte” and the Eschar penetration [5] is listed as “None”.

In the case of `CC(=O)O[C@H]1C[C@@]2(C)[C@@H](C[C@@H](O)[C@H]3[C@@]4(C)CC[C@@H](O)[C@@H](C)[C@@H]4CC[C@@]32C)/C1=C(\CCC=C(C)C)C(=O)O` [fusidic acid], the “reducing local wound bacterial counts and preventing systemic infection” value (MRSA) is listed as “equally effective”.

For `C/C(=C\C(=O)OCCCCCCCCC(=O)O)C[C@@H]1OC[C@H](C[C@@H]2O[C@H]2[C@@H](C)[C@H](C)O)[C@@H](O)[C@H]1O` [mupirocin, pseudomonic acid A], the “reducing local wound bacterial counts and preventing systemic infection” value (MRSA) is given as “equally effective”.
